Measurements as given in PubChem BioAssay AID1259407 (Chemical Carcinogenesis Research Information System (CCRIS), 2018).
Active and inactive are the calls of the source. How the calls were made is not given here.

System: CCRIS mutagenicity, Ames/micronucleus/aberration tests
Experiment: CCRIS mutagenicity studies
[1] = Test System: AMES SALMONELLA TYPHIMURIUM, Strain/Indicator: TA100, Metabolic Activation: NONE, Method: PREINCUBATION

SMILES: CSCCC=O
- mutagenic call (Test System: AMES SALMONELLA TYPHIMURIUM, Strain/Indicator: TA98, Metabolic Activation: NONE, Method: PREINCUBATION): inactive; negative
- mutagenic call (Test System: AMES SALMONELLA TYPHIMURIUM, Strain/Indicator: TA98, Metabolic Activation: RAT LIVER S-9, AROCLOR 1254, Method: PREINCUBATION): inactive; negative
- mutagenic call [1]: inactive; negative
- mutagenic call (Test System: AMES SALMONELLA TYPHIMURIUM, Strain/Indicator: TA100, Metabolic Activation: RAT LIVER S-9, AROCLOR 1254, Method: PREINCUBATION): inactive; negative
- mutagenic call (Test System: AMES SALMONELLA TYPHIMURIUM, Strain/Indicator: TA1535, Metabolic Activation: NONE, Method: PREINCUBATION): inactive; negative
- mutagenic call (Test System: AMES SALMONELLA TYPHIMURIUM, Strain/Indicator: TA1535, Metabolic Activation: RAT LIVER S-9, AROCLOR 1254, Method: PREINCUBATION): inactive; negative
- mutagenic call (Test System: AMES SALMONELLA TYPHIMURIUM, Strain/Indicator: TA1537, Metabolic Activation: NONE, Method: PREINCUBATION): inactive; negative
- mutagenic call (Test System: AMES SALMONELLA TYPHIMURIUM, Strain/Indicator: TA1537, Metabolic Activation: RAT LIVER S-9, AROCLOR 1254, Method: PREINCUBATION): inactive; negative
- mutagenic call (Test System: AMES SALMONELLA TYPHIMURIUM, Strain/Indicator: TA1538, Metabolic Activation: NONE, Method: PREINCUBATION): inactive; negative
- mutagenic call (Test System: AMES SALMONELLA TYPHIMURIUM, Strain/Indicator: TA1538, Metabolic Activation: RAT LIVER S-9, AROCLOR 1254, Method: PREINCUBATION): inactive; negative
- mutagenic call (Test System: MOUSE LYMPHOMA, Strain/Indicator: L5178Y (TK+/TK-), Metabolic Activation: NONE, Method: SUSPENSION/PLATE): active; positive
- mutagenic call (Test System: MOUSE LYMPHOMA, Strain/Indicator: L5178Y (TK+/TK-), Metabolic Activation: RAT LIVER S-9, AROCLOR 1254, Method: SUSPENSION/PLATE): active; positive

SMILES: COc1ccc(C(O)(c2cncnc2)C2CC2)cc1 (stereo not given)
- mutagenic call (Test System: Ames Salmonella typhimurium, Strain/Indicator: TA98, Metabolic Activation: None, Method: Standard Plate): inactive; negative
- mutagenic call (Test System: Ames Salmonella typhimurium, Strain/Indicator: TA98, Metabolic Activation: Rat, liver, S-9, Method: Standard Plate): inactive; negative
- mutagenic call (Test System: Ames Salmonella typhimurium, Strain/Indicator: TA100, Metabolic Activation: None, Method: Standard Plate): inactive; negative
- mutagenic call (Test System: Ames Salmonella typhimurium, Strain/Indicator: TA100, Metabolic Activation: Rat, liver, S-9, Method: Standard Plate): inactive; negative
- mutagenic call (Test System: Ames Salmonella typhimurium, Strain/Indicator: TA1535, Metabolic Activation: None, Method: Standard Plate): inactive; negative
- mutagenic call (Test System: Ames Salmonella typhimurium, Strain/Indicator: TA1535, Metabolic Activation: Rat, liver, S-9, Method: Standard Plate): inactive; negative
- mutagenic call (Test System: Ames Salmonella typhimurium, Strain/Indicator: TA1537, Metabolic Activation: None, Method: Standard Plate): inactive; negative
- mutagenic call (Test System: Ames Salmonella typhimurium, Strain/Indicator: TA1537, Metabolic Activation: Rat, liver, S-9, Method: Standard Plate): inactive; negative
- mutagenic call (Test System: Ames Salmonella typhimurium, Strain/Indicator: TA1538, Metabolic Activation: None, Method: Standard Plate): inactive; negative
- mutagenic call (Test System: Ames Salmonella typhimurium, Strain/Indicator: TA1538, Metabolic Activation: Rat, liver, S-9, Method: Standard Plate): inactive; negative
- mutagenic call (Test System: Mouse lymphoma, Strain/Indicator: L5178Y (TK+/TK-), Metabolic Activation: None, Method: Suspension/Plate): inactive; negative
- mutagenic call (Test System: Mouse lymphoma, Strain/Indicator: L5178Y (TK+/TK-), Metabolic Activation: S-9 of unspecified origin, Method: Suspension/Plate): inactive; negative

SMILES: O=C(O)COc1ccccc1
- mutagenic call (Test System: AMES SALMONELLA TYPHIMURIUM, Strain/Indicator: TA97, Metabolic Activation: NONE, Method: PREINCUBATION): inactive; negative
- mutagenic call (Test System: AMES SALMONELLA TYPHIMURIUM, Strain/Indicator: TA97, Metabolic Activation: RAT, LIVER, S-9, AROCLOR 1254, Method: PREINCUBATION): inactive; negative
- mutagenic call [1]: inactive; negative
- mutagenic call (Test System: AMES SALMONELLA TYPHIMURIUM, Strain/Indicator: TA100, Metabolic Activation: RAT, LIVER, S-9, AROCLOR 1254, Method: PREINCUBATION): inactive; negative
- mutagenic call (Test System: AMES SALMONELLA TYPHIMURIUM, Strain/Indicator: TA102, Metabolic Activation: NONE, Method: PREINCUBATION): inactive; negative
- mutagenic call (Test System: AMES SALMONELLA TYPHIMURIUM, Strain/Indicator: TA102, Metabolic Activation: RAT, LIVER, S-9, AROCLOR 1254, Method: PREINCUBATION): inactive; negative
